Laboratory results reported in ChEMBL document CHEMBL3046027, “In vitro and in vivo antifungal activity of synthetic pure isothiocyanates against Sclerotinia sclerotiorum” (Pest Manag Sci, 2011).

How the values were obtained:
[1] = system: Sclerotinia sclerotiorum; experiment: In vivo antifungal Sclerotinia sclerotiorum in Pepper (Capsicum annuum L. cv. Sera Demre) assessed as inhibition of mycelial growth in volatile phase at 292 umol/L measured after 10 to 14 weeks; type: functional
[2] = system: Sclerotinia sclerotiorum; experiment: Antifungal activity against Sclerotinia sclerotiorum assessed as inhibition of mycelial growth in contact phase at 4387 umol/l measured at 20 degC after 5 days; type: functional; settings: 120 h, read-out: GI
[3] = system: Sclerotinia sclerotiorum; experiment: Antifungal activity against Sclerotinia sclerotiorum assessed as inhibition of mycelial growth in volatile phase at 1460 umol/l measured at 20 degC after 5 days; type: functional; settings: 120 h, read-out: GI
[4] = system: Sclerotinia sclerotiorum; experiment: Fungistatic activity in Sclerotinia sclerotiorum assessed as inhibition of carpogenic germination in volatile phase at 1460 umol/l measured at 20 degC after 5 days relative to control; type: functional; settings: 120 h
[5] = system: Sclerotinia sclerotiorum; experiment: Antifungal activity against Sclerotinia sclerotiorum assessed as inhibition of germination in volatile phase at 731 umol/l measured at 20 degC after 5 days; type: functional; settings: 120 h
[6] = system: Sclerotinia sclerotiorum; experiment: Antifungal activity against Sclerotinia sclerotiorum assessed as inhibition of germination in volatile phase at 439 umol/l measured at 20 degC after 5 days; type: functional; settings: 120 h
[7] = system: Sclerotinia sclerotiorum; experiment: Fungistatic activity in Sclerotinia sclerotiorum assessed as inhibition of carpogenic germination in volatile phase at 73 umol/l measured at 20 degC after 5 days relative to control; type: functional; settings: 120 h
[8] = system: Sclerotinia sclerotiorum; experiment: Antifungal activity against Sclerotinia sclerotiorum assessed as inhibition of germination in volatile phase at 146 umol/l measured at 20 degC after 5 days; type: functional; settings: 120 h
[9] = system: Sclerotinia sclerotiorum; experiment: Fungistatic activity in Sclerotinia sclerotiorum assessed as inhibition of mycelial growth in volatile phase measured at 20 degC after 5 days; type: functional, organism-based; settings: 120 h
[10] = system: Sclerotinia sclerotiorum; experiment: Fungistatic activity in Sclerotinia sclerotiorum assessed as inhibition of mycelial growth in contact phase at 4387 umol/l measured at 20 degC after 5 days relative to control; type: functional; settings: 120 h, read-out: GI
[11] = system: Sclerotinia sclerotiorum; experiment: Antifungal activity against Sclerotinia sclerotiorum assessed as inhibition of germination in volatile phase at 73 umol/l measured at 20 degC after 5 days; type: functional; settings: 120 h
[12] = system: Sclerotinia sclerotiorum; experiment: Antifungal activity against Sclerotinia sclerotiorum assessed as inhibition of mycelial growth in contact phase at 2924 umol/l measured at 20 degC after 5 days; type: functional; settings: 120 h, read-out: GI
[13] = system: Sclerotinia sclerotiorum; experiment: Antifungal activity against Sclerotinia sclerotiorum assessed as inhibition of mycelial growth in volatile phase at 732 umol/l measured at 20 degC after 5 days; type: functional; settings: 120 h, read-out: GI
[14] = system: Sclerotinia sclerotiorum; experiment: In vivo antifungal Sclerotinia sclerotiorum in Pepper (Capsicum annuum L. cv. Sera Demre) assessed as inhibition of mycelial growth in volatile phase at 146 umol/L measured after 10 to 14 weeks; type: functional
[15] = system: Sclerotinia sclerotiorum; experiment: Fungitoxic activity in Sclerotinia sclerotiorum assessed as viability in volatile phase at 731 umol/l measured at 20 degC after 5 days relative to control; type: functional; settings: 120 h, read-out: GI
[16] = system: Sclerotinia sclerotiorum; experiment: Antifungal activity against Sclerotinia sclerotiorum assessed as inhibition of mycelial growth in volatile phase at 1024 umol/l measured at 20 degC after 5 days; type: functional; settings: 120 h, read-out: GI
[17] = system: Sclerotinia sclerotiorum; experiment: Antifungal activity against Sclerotinia sclerotiorum assessed as inhibition of mycelial growth in volatile phase at 73 umol/l measured at 20 degC after 5 days; type: functional; settings: 120 h, read-out: GI
[18] = system: Sclerotinia sclerotiorum; experiment: Fungistatic activity in Sclerotinia sclerotiorum assessed as inhibition of carpogenic germination in volatile phase at 146 umol/l measured at 20 degC after 5 days relative to control; type: functional; settings: 120 h
[19] = system: Sclerotinia sclerotiorum; experiment: Antifungal activity against Sclerotinia sclerotiorum assessed as inhibition of mycelial growth in contact phase at 1316 umol/l measured at 20 degC after 5 days; type: functional; settings: 120 h, read-out: GI
[20] = system: Sclerotinia sclerotiorum; experiment: Fungistatic activity in Sclerotinia sclerotiorum assessed as inhibition of carpogenic germination in volatile phase at 732 umol/l measured at 20 degC after 5 days relative to control; type: functional; settings: 120 h
[21] = system: Sclerotinia sclerotiorum; experiment: Fungistatic activity in Sclerotinia sclerotiorum assessed as sclerotial viability measured at 20 degC after 5 days; type: functional, organism-based; settings: 120 h
[22] = system: Sclerotinia sclerotiorum; experiment: Fungitoxic activity in Sclerotinia sclerotiorum assessed as inhibition of mycelial growth in volatile phase at 1024 umol/l measured at 20 degC after 5 days relative to control; type: functional; settings: 120 h, read-out: GI
[23] = system: Sclerotinia sclerotiorum; experiment: Antifungal activity against Sclerotinia sclerotiorum assessed as inhibition of mycelial growth in volatile phase at 146 umol/l measured at 20 degC after 5 days; type: functional; settings: 120 h, read-out: GI
[24] = system: Sclerotinia sclerotiorum; experiment: Antifungal activity against Sclerotinia sclerotiorum assessed as inhibition of mycelial growth in contact phase at 1024 umol/l measured at 20 degC after 5 days; type: functional; settings: 120 h, read-out: GI
[25] = system: Sclerotinia sclerotiorum; experiment: Antifungal activity against Sclerotinia sclerotiorum assessed as inhibition of germination in volatile phase at 1462 umol/l measured at 20 degC after 5 days; type: functional; settings: 120 h
[26] = system: Sclerotinia sclerotiorum; experiment: Antifungal activity against Sclerotinia sclerotiorum assessed as inhibition of mycelial growth in contact phase at 1462 umol/l measured at 20 degC after 5 days; type: functional; settings: 120 h, read-out: GI
[27] = system: Sclerotinia sclerotiorum; experiment: Fungistatic activity in Sclerotinia sclerotiorum assessed as inhibition of mycelial growth in contact phase measured at 20 degC after 5 days; type: functional, organism-based; settings: 120 h
[28] = system: Sclerotinia sclerotiorum; experiment: Fungistatic activity in Sclerotinia sclerotiorum assessed as inhibition of mycelial growth in volatile phase at 732 umol/l measured at 20 degC after 5 days relative to control; type: functional; settings: 120 h, read-out: GI

CN=C=S [METHYLISOTHIOCYANATE]
inhibition in vivo at 292 µM [1]: 85%
inhibition of growth at 4387 µM [2]: 100%
inhibition of growth at 1460 µM [3]: 100%
inhibition at 1460 µM [4]: 67.5%
inhibition at 731 µM [5]: 100%
inhibition at 439 µM [6]: 66.7%
inhibition at 73 µM [7]: 30%
inhibition at 146 µM [8]: 6.7%
EC50 [9]: 79 µM
inhibition of growth at 4387 µM [10]: 100%
inhibition at 73 µM [11]: 0%
inhibition of growth at 2924 µM [12]: 81.2%
inhibition of growth at 732 µM [13]: 100%
inhibition in vivo at 146 µM [14]: 55%
inhibition of growth at 731 µM [15]: 100%
inhibition of growth at 1024 µM [16]: 100%
inhibition of growth at 73 µM [17]: 34.7%
inhibition at 146 µM [18]: 30%
inhibition of growth at 1316 µM [19]: 18.2%
inhibition at 732 µM [20]: 35%
EC50 [21]: 336 µM
inhibition of growth at 1024 µM [22]: 100%
inhibition of growth at 146 µM [23]: 55.3%
inhibition of growth at 1024 µM [24]: 10.8%
inhibition at 1462 µM [25]: 100%
inhibition of growth at 1462 µM [26]: 54.7%
EC50 [27]: 168 µM
inhibition of growth at 732 µM [28]: 100%
